# ChEMBL document CHEMBL1136301, “1,2,5,6-tetra-O-benzyl-D-mannitol derivatives as novel HIV protease inhibitors” (Bioorg Med Chem Lett, 2003)
# pIC50: −log10 of the molar value.
# Biological target: Human immunodeficiency virus type 1 protease (Human immunodeficiency virus 1, UniProt Q72874)
# Assay: Inhibitory activity against HIV-1 protease
row,SMILES,pIC50
1,O[C@H]([C@H](O)[C@H](COCc1ccccc1)OCc1ccccc1)[C@@H](COCc1ccccc1)OCc1ccccc1,< 4.30
2,O[C@H]([C@H](O)[C@@H](COCc1ccccc1)OCc1ccccc1)[C@@H](COCc1ccccc1)OCc1ccccc1,< 4.30
3,O[C@@H]([C@H](O)[C@@H](COCc1ccccc1)OCc1ccccc1)[C@@H](COCc1ccccc1)OCc1ccccc1,5.62
4,OC(C(COCc1ccccc1)OCc1c(F)cccc1F)C(O)C(COCc1ccccc1)OCc1c(F)cccc1F (stereo not drawn),5.19
5,OC(C(COCc1ccccc1)OCc1ccccc1F)C(O)C(COCc1ccccc1)OCc1ccccc1F (stereo not drawn),5.43
6,OC(C(COCc1ccccc1)OCc1ccc(F)cc1F)C(O)C(COCc1ccccc1)OCc1ccc(F)cc1F (stereo not drawn),5.59
7,OC(C(COCc1ccccc1)OCc1cccc(F)c1)C(O)C(COCc1ccccc1)OCc1cccc(F)c1 (stereo not drawn),5.74
8,Cc1ccc(COC(COCc2ccccc2)C(O)C(O)C(COCc2ccccc2)OCc2ccc(C)cc2)cc1 (stereo not drawn),5.43
9,OC(C(COCc1ccccc1)OCc1ccc(C(F)(F)F)cc1)C(O)C(COCc1ccccc1)OCc1ccc(C(F)(F)F)cc1 (stereo not drawn),5.00
10,O[C@@H](C[C@@H](COCc1ccccc1)OCc1ccccc1)[C@@H](COCc1ccccc1)OCc1ccccc1,< 4.30
11,OC(C(COCc1c(F)cccc1F)OCc1ccc(F)cc1)C(O)C(COCc1c(F)cccc1F)OCc1ccc(F)cc1 (stereo not drawn),6.48
12,N#Cc1ccc(COC(COCc2ccccc2)C(O)C(O)C(COCc2ccccc2)OCc2ccc(C#N)cc2)cc1 (stereo not drawn),5.27
13,O[C@H]([C@@H](O)[C@H](COCc1ccccc1)OCc1ccccc1)[C@H](COCc1ccccc1)OCc1ccccc1,< 4.30
14,OC(C(COCc1ccc(C(F)(F)F)cc1)OCc1ccc(C(F)(F)F)cc1)C(O)C(COCc1ccc(C(F)(F)F)cc1)OCc1ccc(C(F)(F)F)cc1 (stereo not drawn),5.22
15,OC(C(COCc1ccccc1)OCc1ccc(Br)cc1)C(O)C(COCc1ccccc1)OCc1ccc(Br)cc1 (stereo not drawn),5.68
16,O=C(O)c1ccc(COCC(OCc2ccccc2)C(O)C(O)C(COCc2ccc(C(=O)O)cc2)OCc2ccccc2)cc1 (stereo not drawn),5.30
17,COC(=O)c1ccc(COC(COCc2ccccc2)C(O)C(O)C(COCc2ccccc2)OCc2ccc(C(=O)OC)cc2)cc1 (stereo not drawn),5.08
18,OC(C(COCc1ccccc1F)OCc1ccc(F)cc1)C(O)C(COCc1ccccc1F)OCc1ccc(F)cc1 (stereo not drawn),6.70
19,OC(C(COCc1ccccc1)OCc1ccc(Cl)cc1)C(O)C(COCc1ccccc1)OCc1ccc(Cl)cc1 (stereo not drawn),5.70
20,OC(C(COCc1ccccc1)OCc1ccc(F)cc1)C(O)C(COCc1ccccc1)OCc1ccc(F)cc1 (stereo not drawn),6.15
21,N#Cc1ccc(COCC(OCc2ccc(C#N)cc2)C(O)C(O)C(COCc2ccc(C#N)cc2)OCc2ccc(C#N)cc2)cc1 (stereo not drawn),5.51
22,Cc1ccc(COCC(OCc2ccccc2)C(O)C(O)C(COCc2ccc(C)cc2)OCc2ccccc2)cc1 (stereo not drawn),5.52

row,SMILES,pIC50
1,OC(C(COCc1ccccc1F)OCc1ccccc1)C(O)C(COCc1ccccc1F)OCc1ccccc1 (stereo not drawn),6.22
2,OCc1ccc(COC(COCc2ccccc2)C(O)C(O)C(COCc2ccccc2)OCc2ccc(CO)cc2)cc1 (stereo not drawn),5.00
3,N#Cc1ccc(COCC(OCc2ccccc2)C(O)C(O)C(COCc2ccc(C#N)cc2)OCc2ccccc2)cc1 (stereo not drawn),5.37
4,O=C(O)c1ccc(COC(COCc2ccccc2)C(O)C(O)C(COCc2ccccc2)OCc2ccc(C(=O)O)cc2)cc1 (stereo not drawn),4.59
5,OC(C(COCc1cccc(F)c1)OCc1ccccc1)C(O)C(COCc1cccc(F)c1)OCc1ccccc1 (stereo not drawn),5.82
6,NCc1ccc(COC(COCc2ccccc2)C(O)C(O)C(COCc2ccccc2)OCc2ccc(CN)cc2)cc1 (stereo not drawn),4.57
7,OC(C(COCc1ccc(Cl)cc1)OCc1ccccc1)C(O)C(COCc1ccc(Cl)cc1)OCc1ccccc1 (stereo not drawn),5.28
8,Cc1ccc(COCC(OCc2ccc(C)cc2)C(O)C(O)C(COCc2ccc(C)cc2)OCc2ccc(C)cc2)cc1 (stereo not drawn),5.15
9,OC(C(COCc1ccc(F)cc1)OCc1ccc(F)cc1)C(O)C(COCc1ccc(F)cc1)OCc1ccc(F)cc1 (stereo not drawn),5.80
10,O[C@@H]([C@H](O)[C@@H](Cc1ccccc1)OCc1ccccc1)[C@@H](Cc1ccccc1)OCc1ccccc1,< 4.30
11,OC(C(COCc1ccc(Br)cc1)OCc1ccccc1)C(O)C(COCc1ccc(Br)cc1)OCc1ccccc1 (stereo not drawn),5.22
12,NC(=O)c1ccc(COC(COCc2ccccc2)C(O)C(O)C(COCc2ccccc2)OCc2ccc(C(N)=O)cc2)cc1 (stereo not drawn),4.70
13,OC(C(COCc1ccc(F)cc1)OCc1ccccc1)C(O)C(COCc1ccc(F)cc1)OCc1ccccc1 (stereo not drawn),5.60
14,COC(=O)c1ccc(COCC(OCc2ccccc2)C(O)C(O)C(COCc2ccc(C(=O)OC)cc2)OCc2ccccc2)cc1 (stereo not drawn),5.70
15,OC(C(COCc1c(F)cccc1F)OCc1ccccc1)C(O)C(COCc1c(F)cccc1F)OCc1ccccc1 (stereo not drawn),6.48
16,OC(C(COCc1ccc(F)cc1F)OCc1ccccc1)C(O)C(COCc1ccc(F)cc1F)OCc1ccccc1 (stereo not drawn),5.38
17,O[C@@H]([C@H](OCc1ccccc1)[C@H](COCc1ccccc1)OCc1ccccc1)[C@@H](COCc1ccccc1)OCc1ccccc1,< 4.30
18,OC(C(COCc1ccc(C(F)(F)F)cc1)OCc1ccccc1)C(O)C(COCc1ccc(C(F)(F)F)cc1)OCc1ccccc1 (stereo not drawn),5.30
19,O[C@@H]([C@H](O)[C@@H](COc1ccccc1)OCc1ccccc1)[C@@H](COc1ccccc1)OCc1ccccc1,< 4.30
20,Cc1ccccc1COC(COCc1ccccc1F)C(O)C(O)C(COCc1ccccc1F)OCc1ccccc1C (stereo not drawn),6.10
21,OCc1ccc(COCC(OCc2ccccc2)C(O)C(O)C(COCc2ccc(CO)cc2)OCc2ccccc2)cc1 (stereo not drawn),5.92
